Results as given in patent US20100009920A1, “TTK AS TUMOR MARKER AND THERAPEUTIC TARGET FOR LUNG CANCER” (priority 2006, published 2010).
Entries after “also recorded” stand apart in the source; their conditions may differ. One block for each compound: values may come before it.

Tests used:
TTK [1] = assay: Semiquantitative RT-PCR of TTK expression after transfection of siRNA-expression plasmids; type: cell-based, human; conditions: LC319 and A549 cells, versus control siRNAs (LUC, SCR)
Protocol: Total RNA was extracted from cultured cells and clinical tissues using Trizol reagent (Life Technologies, Inc.) according to the manufacturer's protocol. Extracted RNAs and normal human tissue poly(A) RNAs were treated with DNase I (Nippon Gene) and were reverse-transcribed using oligo(dT)20 primer and SuperScript II reverse transcriptase (Invitrogen). Semiquantitative RT-PCR experiments were carried out with the following synthesized gene-specific primers or with beta-actin (ACTB)-specific primers as an internal control: TTK,
A vector-based RNA interference (RNAi) system, psiH1BX3.0, had previously established to direct the synthesis of siRNAs in mammalian cells (Suzuki et al., 2003, 2005; Kato et al, 2005; Furukawa et al, 2005). 10 micro-g of siRNA-expression vector were transfected into NSCLC cell lines LC319 and A549 both of which over-expressed TTK endogenously, using 30 micro-1 of Lipofectamine 2000 (Invitrogen). The transfected cells were cultured for five days in the presence of appropriate concentrations of geneticin (G418), after which cell numbers and viability were measured by Giemsa staining and triplicate MTT assays. […]

LC319 and A549 cells = assay: MTT and colony-formation assays after transfection of siRNA-expression plasmids; type: cell-based, human
Protocol: A vector-based RNA interference (RNAi) system, psiH1BX3.0, had previously established to direct the synthesis of siRNAs in mammalian cells (Suzuki et al., 2003, 2005; Kato et al, 2005; Furukawa et al, 2005). 10 micro-g of siRNA-expression vector were transfected into NSCLC cell lines LC319 and A549 both of which over-expressed TTK endogenously, using 30 micro-1 of Lipofectamine 2000 (Invitrogen). The transfected cells were cultured for five days in the presence of appropriate concentrations of geneticin (G418), after which cell numbers and viability were measured by Giemsa staining and triplicate MTT assays. The target sequences of the synthetic oligonucleotides for RNAi were as follows: control 1 (Luciferase: Photinus pyralis luciferase gene), 5′-CGTACGCGGAATACTTCGA-3′ (SEQ ID NO: 9); control 2 (Scramble: chloroplast Euglena gracilis gene coding for 5S and 16S rRNAs),

TTK [2] = assay: In vitro kinase assay, phosphorylation of active-rhEGFR by recombinant TTK; type: biochemical, human; conditions: active-rhEGFR pre-treated with inhibitor, recombinant TTK present
Source text: The full-length cDNA of TTK was subcloned into pFastBac HT vector. The recombinant shuttle vector was transformed into the baculovirus genome (bacmid DNA) in DH10Bac competent cells (Invitrogen) by using Tn7 site-specific transposition according to the minufacture's instructions for the Bac-to-Bac expression system (Invitrogen). The recombinant bacmid DNA was isolated, purified, transfected into Sf9 cells (Invitrogen) (recombinant baculovirus), and used for next infection. Log-phase Sf-9 cells were infected with recombinant baculovirus at a multiplicity of infection (MOI) of 1, and then infected Sf-9 cells were grown in suspension at 27° C. for 72 hours. Extracts of Sf-9 cells were collected and the His fusion proteins were purified using HiTrap HP column (GE Healthcare Bio-sciences) using standard protocols. […] TTK-KD was cloned into pGEX6T vector (GE Healthcare Bio-sciences). GST fusion protein was expressed in E. coli stain BL21 and purified by Glutathione Sepharose 4B (GE Healthcare Bio-sciences) using standard protocols. […]
The EGFR tyrosine phosphorylation sites were further evaluated by TTK using GST-tagged proteins containing various cytoplasmic region of EGFR as substrates (EGFR-DEL1, −DEL2, and −DEL3; FIG. 4e). […]

[3] = test system: catalytically-active recombinant GST-tagged human EGFR (active-rhEGFR); assay: In vitro kinase assay, autophosphorylation of active-rhEGFR (western blot with anti-phospho-tyrosine antibodies); type: biochemical; conditions: in the presence of ATP, no recombinant TTK
A549 cells [4] = assay: Microscopic observation of cell morphology (phase contrast images); type: cell-based, human; conditions: non-treated cells as control
Protocol: (§1) The oligo-siRNAs (Dharmacon, Inc., Lafayette, Colo.) ([…]) were transfected into appropriate lung-cancer cell lines using 30 micro-1 of Lipofectamine 2000 (Invitrogen, Carlsbad, Calif.) following the manufacturer's protocol. The ribonucleotide sequences corresponding to following sequences were used as the oligo-siRNA.
The endogenous association between TTK and EGFR in lung cancer cells was also investigated by immunoprecipitaion experiment using extracts from A549 cells, and the interaction between these two proteins regardless the EGF-stimulation was detected (FIG. 4b). To further examine the relevance of TTK to EGFR signaling, TTK or EGFR function in A549 cells were suppressed and cell morphology was microscopically observed.

HEK293 cells [5] = assay: Matrigel invasion assay of TTK- or mock-stable transfectants of HEK293 transfected with RNAi-EGFR; type: cell-based
HEK293 cells [6] = assay: MTT assay of TTK- or mock-stable transfectants of HEK293 transfected with RNAi-EGFR; type: cell-based
Protocol: as §1
TTK-expressing stable transfectants were established according to a standard protocol. Using FuGENE 6 Transfection Reagent (Roche Diagnostics), we transfected HEK293 and NIH3T3 cells with plasmids expressing TTK (pCAGGS-n3FH-TTK) or mock plasmids (pCAGGS-n3FH). Transfected cells were cultured in DMEM containing 10% FCS and G418, then individual colonies were trypsinized and screened for stable transfectants by a limiting-dilution assay. Expression of TTK was determined in each clone by RT-PCR, western blotting, and immunostaining. HEK293 or NIH3T3 transfectants that stably expressed TTK were seeded onto 6-well plates (5×10^4 cells/well), and maintained in medium containing 10% FCS and 0.4 mg/ml G418 for 7 days. At each time point, cell proliferation was evaluated by the MTT assay using Cell Counting Kits (WAKO). All experiments were done in triplicate.

A549 cells [7] = assay: MTT assay of A549 cells treated with cell-permeable 11R-EGFR peptides; type: cell-based, human; conditions: A549 cells, 2.5, 5 and 7.5 micro-mol/L, 5 days
Protocol: 17˜31 amino acid peptide sequences corresponding to a part of EGFR protein that contained possible TTK-interacting region were covalently linked at its NH2 terminus to a membrane transducing 11 poly-arginine sequence (Hayama, S, et al. Cancer Res. 66, 10339-48 (2006), Futaki S, et al. J Biol. Chem. 276, 5836-5840 (2001)). Three cell-permeable peptides were synthesized:
Peptides were purified by preparative reverse-phase high-pressure liquid chromatography. A549 cells were incubated with the 11R peptides at the concentration of 2.5, 5, and 7.5 micro-mol/L for 5 days. The medium was exchanged at every 48 hours at the appropriate concentrations of each peptide and the viability of cells was evaluated by MTT assay at 5 days after the treatment.

Compound: 5′-ACAGTGTTCCGCTAAGTGA-3′ [si-TTK-1]
amount of TTK transcript (TTK [1]): significantly decreased
cell viability (MTT assay) (LC319 and A549 cells; versus two control siRNAs): reduced significantly
colony numbers (colony-formation assay) (LC319 and A549 cells; versus two control siRNAs): reduced significantly

Compound: 5′-ATCACGGACCAGTACATCT-3′ [si-TTK-2]
amount of TTK transcript (TTK [1]): weaker reduction
growth-suppressive effect (LC319 and A549 cells): modest growth-suppressive effect

phosphorylation of active-rhEGFR by TTK (TTK [2]): not inhibited
Compound: COc1cc2ncnc(Nc3cccc(Cl)c3)c2cc1OC [AG1478, tryphostin 4-(3-chloroanilino)-6,7-dimethoxyquinazoline]
phosphorylation of active-rhEGFR by TTK (TTK [2]; listed as AG1378): detected in the presence of recombinant TTK
autophosphorylation of active-rhEGFR on tyrosine [3]: inhibited
autophosphorylation of active-rhEGFR on tyrosine ([3]; listed as AG1378): not detected
cell morphology (A549 cells [4]): became much larger with multiple nuclei

Compound: GTAACAAGCTCACGCAGTTTT (listed as DNA, chemistry not given here) [RNAi-EGFR (oligo)]
TTK-induced cell invasion through Matrigel (HEK293 cells [5]; TTK-transfected HEK293 cells, P<0.0001): reduced to near the basal level
Invasion of the control cells through Matrigel (HEK293 cells [5]; mock-transfected HEK293 cells): slightly reduced
TTK-induced cell proliferation (HEK293 cells [6]; HEK293 transfectants stably expressing TTK, P=0.0032): significantly reduced
proliferation of HEK293 control cells (HEK293 cells [6]; control cells transfected with mock vector, P=0.2439): scarcely reduced
cell morphology (A549 cells [4]): became much larger with multiple nuclei

Compound: RRRRRRRRRRR-GGG-DVYMIMVKCWMIDADSRPK (An artificially synthesised dominant negative peptide) [11R-EGFR918-936]
cell viability (MTT assay) (A549 cells [7]): significant decreases

Compound: RRRRRRRRRRR-GGG-EFMAELLRYFRPQSKRDII (RRRRRRRRRRRGGGEFMAELLRYFRPQSKRDII) [scramble peptides, Scramble peptides derived from 11R-EGFR937-955, synthesized as a control, reference compound]
cell viability (MTT assay) (A549 cells [7]): no growth-suppressive effect

Compound: RRRRRRRRRRR-GGG-FRELIIEFSKMARDPQRYL (An artificially synthesised dominant negative peptide) [11R-EGFR937-955]
cell viability (MTT assay) (A549 cells [7]): most effective; also recorded: significant decreases

Compound: RRRRRRRRRRR-GGG-ISSILEKGERLPQPPICTI (An artificially synthesised dominant negative peptide) [11R-EGFR899-917]
cell viability (MTT assay) (A549 cells [7]): significant decreases
